According to patent US20250072441A1, “METHOD FOR PREPARING A COMESTIBLE NUTRIENT COMPOSITION AND USE THEREOF” (The Cultivated B. GmbH, priority 2022, published 2025):
Where two headings read alike, the source gives them in different places.

Assays:
[1] = test system: HepG2 cells; assay: Neutral Red Assay, cell viability/cytotoxicity; assay type: cell-based; conditions: Homo sapiens, 48 h, 2 days after compound addition, n=3
Experimental: It is a cellular assay that is based on a eurhodin dye that stains the lysosomes of viable cells. HepG2 cells were supplied by ATCC (HB-8065), cultured in DMEM supplemented with 10% FBS and grown in a incubator set to 37° C. and 5% CO2. For both assays, cells were seeded at 5.000 cells/well in a 96-well plate using only the 32 central wells. Due to inherent clumping of HepG2 cells, amount of cells could not be properly measured and varied between assays. […] Cells were processed after 2 days of compound addition. The Neutral Red Assay Kit—Cell Viability/Cytotoxicity (ab234039, Abcam) was used. All solutions of the kit were aliquoted and stored at −20° C. as recommended. […] Cell medium was removed and cells washed with 200 μL of 1× washing solution. After addition of 150 μL of 1× Neutral Red Staining Solution, cells were stained for 2 hours in the incubator. Cells were washed with 250 μL of 1× washing solution, and then air dried for approx. 10 min until no liquid was visible on the plate. Addition of 150 μL 1× solubilization solution was followed by shaking the plate for 20 min at 500 rpm and RT. The 96-well plate was then read at a microplate reader at an OD of 540 nm.

[2] = test system: HepG2 cells; assay: cells; conditions: Homo sapiens, HepG2, 48 h
Experimental: This cellular assay quantitates the amount of ATP that can be correlated to cell viability. HepG2 cells were supplied by ATCC (HB-8065), cultured in DMEM supplemented with 10% FBS and grown in a incubator set to 37° C. and 5% CO2. For both assays, cells were seeded at 5.000 cells/well in a 96-well plate using only the 32 central wells. Due to inherent clumping of HepG2 cells, amount of cells could not be properly measured and varied between assays. Various concentrations of Doxorubicin were added 18 hours after seeding to the cells at a volume of 0.2 μL of cells using IDOT. Cells were processed after 2 days of compound addition. The CellTiter-Glo 2.0 Cell Viability Assay (G9242, Promega) was used. The solution was thawed and stored at 4° C. as recommended. Cell medium was removed, then cells were washed 2× in 100 μL PBS. After the last wash, 50 μL of PBS followed by 50 μL of CellTiter-Glo 2.0 reagent were added. The 96-well plate was mixed for 2 min on an orbital shaker and incubated at 10 min at RT. Luminescence was recorded at a microplate reader, using a integration time of 1.000 ms. For both assays, data for dose-response experiments was fitted with the equation “Log(agonist) vs response−Variable slope (four parameters)” using Prism.

[3] = test system: HepG2 cells; conditions: read-out: IC50, expected literature value reported in the manual for the Neutral Red Assay; cited from earlier work

COc1cccc2c1C(=O)c1c(O)c3c(c(O)c1C2=O)C[C@@](O)(C(=O)CO)C[C@@H]3O[C@H]1C[C@H](N)[C@H](O)[C@H](C)O1 [Doxorubicin]
IC50 [1]: 79 nM
IC50 [2]: 116 nM
IC50 [3]: 690 nM
